pIC50: −log10 of the molar value. Bridge positions count the residues as written; N and C are the ends. Square brackets hold non-standard residues; d marks the D form. Peptide text beside a SMILES is read from it. 1Nal = N[C@@H](Cc1cccc2ccccc12)C(=O)O
Experiments:
[1] = target: T1, Potassium voltage-gated channel subfamily A member 3 (Homo sapiens, UniProt P22001); format: cell-based, CHO-K1
[2] = target: T1, Potassium voltage-gated channel subfamily A member 3; test: cell-based; design: species or system Blood
[3] = target: T1, Potassium voltage-gated channel subfamily A member 3; design: species or system Blood

T1 sequence (P22001 whole entry): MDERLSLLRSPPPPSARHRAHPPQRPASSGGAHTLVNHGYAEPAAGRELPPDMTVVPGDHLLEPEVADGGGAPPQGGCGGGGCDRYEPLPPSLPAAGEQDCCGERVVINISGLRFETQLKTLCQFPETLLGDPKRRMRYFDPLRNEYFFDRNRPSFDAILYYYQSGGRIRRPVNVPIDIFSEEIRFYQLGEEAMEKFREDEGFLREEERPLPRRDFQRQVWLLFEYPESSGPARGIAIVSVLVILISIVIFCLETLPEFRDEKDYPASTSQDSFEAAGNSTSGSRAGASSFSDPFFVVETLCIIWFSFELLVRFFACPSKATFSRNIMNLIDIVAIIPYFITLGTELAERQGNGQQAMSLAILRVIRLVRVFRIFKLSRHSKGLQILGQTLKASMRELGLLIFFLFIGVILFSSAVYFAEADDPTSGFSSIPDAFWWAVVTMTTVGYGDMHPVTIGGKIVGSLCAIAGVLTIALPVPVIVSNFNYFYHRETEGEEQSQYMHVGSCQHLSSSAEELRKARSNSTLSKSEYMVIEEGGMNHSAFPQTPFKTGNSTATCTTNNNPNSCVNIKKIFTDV

pIC50 [1]	pIC50 [2]	pIC50 [3]	Compound
9.78	9.43	9.31	CC[C@H](C)[C@@H]1NC(=O)[C@@H](NC(=O)[C@H](CO)NC(=O)[C@@H](N)CCCNC(=N)N)CSSC[C@@H](C(=O)O)NC(=O)[C@H]([C@@H](C)O)NC(=O)CNC(=O)[C@@H]2CSSC[C@@H]3NC(=O)[C@H](CCCNC(=N)N)NC(=O)[C@H](Cc4ccccc4)NC(=O)[C@H](C)NC(=O)[C@H]([C@@H](C)O)NC(=O)[C@H](CSSC[C@H](NC(=O)[C@H](Cc4ccccc4)NC(=O)[C@H](CO)NC(=O)[C@H](CC(C)C)NC(=O)[C@H](CCCNC(=N)N)NC(=O)[C@H](Cc4ccc(O)cc4)NC(=O)[C@H](CCCCN)NC(=O)[C@H](CCSC)NC(=O)[C@H](CO)NC(=O)[C@H](Cc4cnc[nH]4)NC(=O)[C@H](CCCCN)NC3=O)C(=O)N[C@@H](CCCNC(=N)N)C(=O)N[C@@H](CCCCN)C(=O)N[C@@H]([C@@H](C)O)C(=O)N2)NC(=O)[C@H](CCCNC(=N)N)NC(=O)[C@H](CO)NC(=O)[C@H](CCCCN)NC(=O)[C@@H]2CCCN2C(=O)[C@H]([C@@H](C)CC)NC(=O)[C@H]([C@@H](C)O)NC(=O)[C@H](CC(=O)O)NC1=O
< 8.48	7.60	7.39	CC[C@H](C)[C@@H]1NC(=O)[C@@H](NC(=O)[C@H](CO)NC(=O)[C@@H](N)CCCNC(=N)N)CSSC[C@@H](C(=O)O)NC(=O)[C@H]([C@@H](C)O)NC(=O)CNC(=O)[C@@H]2CSSC[C@@H]3NC(=O)[C@H](CCC(N)=O)NC(=O)[C@H](Cc4ccccc4)NC(=O)[C@H](C)NC(=O)[C@H]([C@@H](C)O)NC(=O)[C@H](CSSC[C@H](NC(=O)[C@H](Cc4ccccc4)NC(=O)[C@H](CO)NC(=O)[C@H](CC(C)C)NC(=O)[C@H](CCCNC(=N)N)NC(=O)[C@H](Cc4ccc(O)cc4)NC(=O)[C@H](CCCCN)NC(=O)[C@H](CCSC)NC(=O)[C@H](CCCNC(=N)N)NC(=O)[C@H](Cc4cnc[nH]4)NC(=O)[C@H](CCCCN)NC3=O)C(=O)N[C@@H](CCCNC(=N)N)C(=O)N[C@@H](CCCCN)C(=O)N[C@@H]([C@@H](C)O)C(=O)N2)NC(=O)[C@H](CCCNC(=N)N)NC(=O)[C@H](CO)NC(=O)[C@H](CCCCN)NC(=O)[C@@H]2CCCN2C(=O)[C@H]([C@@H](C)CC)NC(=O)[C@H]([C@@H](C)O)NC(=O)[C@H](CC(=O)O)NC1=O
9.59	8.83	8.51	CC[C@H](C)[C@@H]1NC(=O)[C@@H](NC(=O)[C@H](CO)NC(=O)[C@@H](N)CCCNC(=N)N)CSSC[C@@H](C(=O)O)NC(=O)[C@H]([C@@H](C)O)NC(=O)CNC(=O)[C@@H]2CSSC[C@@H]3NC(=O)[C@H](CCC(N)=O)NC(=O)[C@H](Cc4ccccc4)NC(=O)[C@H](C)NC(=O)[C@H]([C@@H](C)O)NC(=O)[C@H](CSSC[C@H](NC(=O)[C@H](Cc4ccccc4)NC(=O)[C@H](CO)NC(=O)[C@H](CC(C)C)NC(=O)[C@H](CCCNC(=N)N)NC(=O)[C@H](Cc4ccc(O)cc4)NC(=O)[C@H](CCCCN)NC(=O)[C@H](CCCNC(=N)N)NC(=O)[C@H](CO)NC(=O)[C@H](Cc4cnc[nH]4)NC(=O)[C@H](CCCCN)NC3=O)C(=O)N[C@@H](CCCNC(=N)N)C(=O)N[C@@H](CCCCN)C(=O)N[C@@H]([C@@H](C)O)C(=O)N2)NC(=O)[C@H](CCCNC(=N)N)NC(=O)[C@H](CO)NC(=O)[C@H](CCCCN)NC(=O)[C@@H]2CCCN2C(=O)[C@H]([C@@H](C)CC)NC(=O)[C@H]([C@@H](C)O)NC(=O)[C@H](CC(=O)O)NC1=O
9.53	9.33	9.00	CC[C@H](C)[C@@H]1NC(=O)[C@@H](NC(=O)[C@H](CO)NC(=O)[C@@H](N)CCCNC(=N)N)CSSC[C@@H](C(=O)O)NC(=O)[C@H]([C@@H](C)O)NC(=O)CNC(=O)[C@@H]2CSSC[C@@H]3NC(=O)[C@H](CCC(N)=O)NC(=O)[C@H](CCCCN)NC(=O)[C@H](C)NC(=O)[C@H]([C@@H](C)O)NC(=O)[C@H](CSSC[C@H](NC(=O)[C@H](Cc4ccccc4)NC(=O)[C@H](CO)NC(=O)[C@H](CC(C)C)NC(=O)[C@H](CCCNC(=N)N)NC(=O)[C@H](Cc4ccc(O)cc4)NC(=O)[C@H](CCCCN)NC(=O)[C@H](CCSC)NC(=O)[C@H](CO)NC(=O)[C@H](C)NC(=O)[C@H](CCCCN)NC3=O)C(=O)N[C@@H](CCCNC(=N)N)C(=O)N[C@@H](CCCCN)C(=O)N[C@@H]([C@@H](C)O)C(=O)N2)NC(=O)[C@H](CCCNC(=N)N)NC(=O)[C@H](CO)NC(=O)[C@H](CCCCN)NC(=O)[C@@H]2CCCN2C(=O)[C@H]([C@@H](C)CC)NC(=O)[C@H]([C@@H](C)O)NC(=O)[C@H](CC(=O)O)NC1=O (H-RSCIDTIPKSRCTAKQCKASMKYRLSFCRKTCGTC-OH; disulfide 3-35, 12-28, 17-32)
10.14	9.74	9.54	CC[C@H](C)[C@@H]1NC(=O)[C@@H](NC(=O)[C@H](CO)NC(=O)[C@@H](N)CCCNC(=N)N)CSSC[C@@H](C(=O)O)NC(=O)[C@H]([C@@H](C)O)NC(=O)CNC(=O)[C@@H]2CSSC[C@@H]3NC(=O)[C@H](CCC(N)=O)NC(=O)[C@H](Cc4cccc5ccccc45)NC(=O)[C@H](C)NC(=O)[C@H]([C@@H](C)O)NC(=O)[C@H](CSSC[C@H](NC(=O)[C@H](Cc4ccccc4)NC(=O)[C@H](CO)NC(=O)[C@H](CC(C)C)NC(=O)[C@H](CCCNC(=N)N)NC(=O)[C@H](Cc4ccc(O)cc4)NC(=O)[C@H](CCCCN)NC(=O)[C@H](CCSC)NC(=O)[C@H](CO)NC(=O)[C@H](C)NC(=O)[C@H](CCCCN)NC3=O)C(=O)N[C@@H](CCCNC(=N)N)C(=O)N[C@@H](CCCCN)C(=O)N[C@@H]([C@@H](C)O)C(=O)N2)NC(=O)[C@H](CCCNC(=N)N)NC(=O)[C@H](CO)NC(=O)[C@H](CCCCN)NC(=O)[C@@H]2CCCN2C(=O)[C@H]([C@@H](C)CC)NC(=O)[C@H]([C@@H](C)O)NC(=O)[C@H](CC(=O)O)NC1=O (H-RSCIDTIPKSRCTA[1Nal]QCKASMKYRLSFCRKTCGTC-OH; disulfide 3-35, 12-28, 17-32)

Compound	pIC50 [1]	pIC50 [2]	pIC50 [3]
CC[C@H](C)[C@@H]1NC(=O)[C@@H](NC(=O)[C@H](CCC(=O)O)NC(=O)[C@@H](N)CCCNC(=N)N)CSSC[C@@H](C(=O)O)NC(=O)[C@H]([C@@H](C)O)NC(=O)CNC(=O)[C@@H]2CSSC[C@@H]3NC(=O)[C@H](CCC(N)=O)NC(=O)[C@H](Cc4ccccc4)NC(=O)[C@H](C)NC(=O)[C@H]([C@@H](C)O)NC(=O)[C@H](CSSC[C@H](NC(=O)[C@H](Cc4ccccc4)NC(=O)[C@H](CO)NC(=O)[C@H](CC(C)C)NC(=O)[C@H](CCCNC(=N)N)NC(=O)[C@H](Cc4ccc(O)cc4)NC(=O)[C@H](CCCCN)NC(=O)[C@H](CCSC)NC(=O)[C@H](CO)NC(=O)[C@H](Cc4cnc[nH]4)NC(=O)[C@H](CCCCN)NC3=O)C(=O)N[C@@H](CCCNC(=N)N)C(=O)N[C@@H](CCCCN)C(=O)N[C@@H]([C@@H](C)O)C(=O)N2)NC(=O)[C@H](CCCNC(=N)N)NC(=O)[C@H](CO)NC(=O)[C@H](CCCCN)NC(=O)[C@@H]2CCCN2C(=O)[C@H]([C@@H](C)CC)NC(=O)[C@H]([C@@H](C)O)NC(=O)[C@H](CC(=O)O)NC1=O	10.02	10.54	10.41
CC[C@H](C)[C@@H]1NC(=O)[C@@H](NC(=O)[C@H](CO)NC(=O)[C@@H](N)CCCNC(=N)N)CSSC[C@@H](C(=O)O)NC(=O)[C@H]([C@@H](C)O)NC(=O)CNC(=O)[C@@H]2CSSC[C@@H]3NC(=O)[C@H](CCC(N)=O)NC(=O)[C@H](Cc4ccccc4)NC(=O)[C@H](C)NC(=O)[C@H]([C@@H](C)O)NC(=O)[C@H](CSSC[C@H](NC(=O)[C@H](Cc4ccccc4)NC(=O)[C@H](CO)NC(=O)[C@H](CC(C)C)NC(=O)[C@H](CCCNC(=N)N)NC(=O)[C@H](Cc4ccc(O)cc4)NC(=O)[C@H](CCCCN)NC(=O)[C@H](CCSC)NC(=O)[C@H](CO)NC(=O)[C@H](Cc4cnc[nH]4)NC(=O)[C@H](CCCCN)NC3=O)C(=O)N[C@@H](CCCNC(=N)N)C(=O)N[C@@H](CCCCN)C(=O)N[C@@H]([C@@H](C)O)C(=O)N2)NC(=O)[C@H](CCCNC(=N)N)NC(=O)[C@H](CO)NC(=O)[C@H](CCCCN)NC(=O)[C@@H]2CCCN2C(=O)[C@H]([C@@H](C)CC)NC(=O)[C@H]([C@@H](C)O)NC(=O)[C@H](CCC(=O)O)NC1=O	< 8.48	7.77	< 7.61
CC[C@H](C)[C@@H]1NC(=O)[C@@H](NC(=O)[C@H](CO)NC(=O)[C@@H](N)CCCNC(=N)N)CSSC[C@@H](C(=O)O)NC(=O)[C@H](CCCCN)NC(=O)CNC(=O)[C@@H]2CSSC[C@@H]3NC(=O)[C@H](CCC(N)=O)NC(=O)[C@H](Cc4ccccc4)NC(=O)[C@H](C)NC(=O)[C@H]([C@@H](C)O)NC(=O)[C@H](CSSC[C@H](NC(=O)[C@H](Cc4ccccc4)NC(=O)[C@H](CO)NC(=O)[C@H](CC(C)C)NC(=O)[C@H](CCCNC(=N)N)NC(=O)[C@H](Cc4ccc(O)cc4)NC(=O)[C@H](CCCCN)NC(=O)[C@H](CCSC)NC(=O)[C@H](CO)NC(=O)[C@H](Cc4cnc[nH]4)NC(=O)[C@H](CCCCN)NC3=O)C(=O)N[C@@H](CCCNC(=N)N)C(=O)N[C@@H](CCCCN)C(=O)N[C@@H]([C@@H](C)O)C(=O)N2)NC(=O)[C@H](CCCNC(=N)N)NC(=O)[C@H](CO)NC(=O)[C@H](CCCCN)NC(=O)[C@@H]2CCCN2C(=O)[C@H]([C@@H](C)CC)NC(=O)[C@H]([C@@H](C)O)NC(=O)[C@H](CC(=O)O)NC1=O	9.82	10.17	9.87
CC[C@H](C)[C@@H]1NC(=O)[C@H]([C@@H](C)O)NC(=O)[C@H](CC(=O)O)NC(=O)[C@H](Cc2cccc3ccccc23)NC(=O)[C@@H](NC(=O)[C@H](CO)NC(=O)[C@@H](N)CCCNC(=N)N)CSSC[C@@H](C(=O)O)NC(=O)[C@H]([C@@H](C)O)NC(=O)CNC(=O)[C@@H]2CSSC[C@@H]3NC(=O)[C@H](CCC(N)=O)NC(=O)[C@H](Cc4ccccc4)NC(=O)[C@H](C)NC(=O)[C@H]([C@@H](C)O)NC(=O)[C@H](CSSC[C@H](NC(=O)[C@H](Cc4ccccc4)NC(=O)[C@H](CO)NC(=O)[C@H](CC(C)C)NC(=O)[C@H](CCCNC(=N)N)NC(=O)[C@H](Cc4ccc(O)cc4)NC(=O)[C@H](CCCCN)NC(=O)[C@H](CCSC)NC(=O)[C@H](CO)NC(=O)[C@H](Cc4cnc[nH]4)NC(=O)[C@H](CCCCN)NC3=O)C(=O)N[C@@H](CCCNC(=N)N)C(=O)N[C@@H](CCCCN)C(=O)N[C@@H]([C@@H](C)O)C(=O)N2)NC(=O)[C@H](CCCNC(=N)N)NC(=O)[C@H](CO)NC(=O)[C@H](CCCCN)NC(=O)[C@@H]2CCCN2C1=O	9.81	9.56	9.50

Source: ChEMBL document CHEMBL3608278 (J Med Chem, 2015)
